Experimental data taken from ChEMBL document CHEMBL1201862, “PubChem BioAssay data set” (2004).
Calls of active or inactive are those of the source.

Tests used:
[1] = Luminescence Cell-Based Dose Confirmation HTS to Identify Activators of 5'UTR Stem-Loop Driven Alpha-Synuclein mRNA Translation in H4 Neuroglioblastoma Cells. [Related pubchem assays: 1829 (Project Summary), 1814 (Primary HTS)]; type: functional
[2] = Luminescence Cell-Based Dose Response HTS to Identify Activators of Luciferase Translation or Activity in H4 […] Cells. [Related pubchem assays: 1829 (Project Summary), 1814 (Primary HTS)]; type: functional
[3] = system: H4; assay: Luminescence Cell-Based Dose Response HTS to Identify Activators of 5'UTR Stem-Loop Driven Prion Protein mRNA Translation in H4 Neuroglioblastoma Cells. [Related pubchem assays: 1829 (Project Summary), 1814 (Primary HTS)]; type: functional; details: Homo sapiens
[4] = molecular target: Glyceraldehyde-3-phosphate dehydrogenase (Homo sapiens, UniProt P04406)
Glyceraldehyde-3-phosphate dehydrogenase, sequence (P04406 whole entry): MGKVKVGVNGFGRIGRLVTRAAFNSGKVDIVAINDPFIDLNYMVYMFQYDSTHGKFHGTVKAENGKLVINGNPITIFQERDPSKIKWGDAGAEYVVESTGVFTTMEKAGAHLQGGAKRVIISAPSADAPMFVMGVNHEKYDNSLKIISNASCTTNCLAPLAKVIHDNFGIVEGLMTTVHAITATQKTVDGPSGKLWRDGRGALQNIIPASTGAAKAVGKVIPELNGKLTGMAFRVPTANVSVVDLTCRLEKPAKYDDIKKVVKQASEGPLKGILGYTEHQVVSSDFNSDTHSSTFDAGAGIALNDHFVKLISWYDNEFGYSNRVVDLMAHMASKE

[5] = molecular target: T1, Histone-lysine N-methyltransferase NSD2 (Homo sapiens, UniProt O96028); type: biochemical
T1 sequence (O96028 whole entry): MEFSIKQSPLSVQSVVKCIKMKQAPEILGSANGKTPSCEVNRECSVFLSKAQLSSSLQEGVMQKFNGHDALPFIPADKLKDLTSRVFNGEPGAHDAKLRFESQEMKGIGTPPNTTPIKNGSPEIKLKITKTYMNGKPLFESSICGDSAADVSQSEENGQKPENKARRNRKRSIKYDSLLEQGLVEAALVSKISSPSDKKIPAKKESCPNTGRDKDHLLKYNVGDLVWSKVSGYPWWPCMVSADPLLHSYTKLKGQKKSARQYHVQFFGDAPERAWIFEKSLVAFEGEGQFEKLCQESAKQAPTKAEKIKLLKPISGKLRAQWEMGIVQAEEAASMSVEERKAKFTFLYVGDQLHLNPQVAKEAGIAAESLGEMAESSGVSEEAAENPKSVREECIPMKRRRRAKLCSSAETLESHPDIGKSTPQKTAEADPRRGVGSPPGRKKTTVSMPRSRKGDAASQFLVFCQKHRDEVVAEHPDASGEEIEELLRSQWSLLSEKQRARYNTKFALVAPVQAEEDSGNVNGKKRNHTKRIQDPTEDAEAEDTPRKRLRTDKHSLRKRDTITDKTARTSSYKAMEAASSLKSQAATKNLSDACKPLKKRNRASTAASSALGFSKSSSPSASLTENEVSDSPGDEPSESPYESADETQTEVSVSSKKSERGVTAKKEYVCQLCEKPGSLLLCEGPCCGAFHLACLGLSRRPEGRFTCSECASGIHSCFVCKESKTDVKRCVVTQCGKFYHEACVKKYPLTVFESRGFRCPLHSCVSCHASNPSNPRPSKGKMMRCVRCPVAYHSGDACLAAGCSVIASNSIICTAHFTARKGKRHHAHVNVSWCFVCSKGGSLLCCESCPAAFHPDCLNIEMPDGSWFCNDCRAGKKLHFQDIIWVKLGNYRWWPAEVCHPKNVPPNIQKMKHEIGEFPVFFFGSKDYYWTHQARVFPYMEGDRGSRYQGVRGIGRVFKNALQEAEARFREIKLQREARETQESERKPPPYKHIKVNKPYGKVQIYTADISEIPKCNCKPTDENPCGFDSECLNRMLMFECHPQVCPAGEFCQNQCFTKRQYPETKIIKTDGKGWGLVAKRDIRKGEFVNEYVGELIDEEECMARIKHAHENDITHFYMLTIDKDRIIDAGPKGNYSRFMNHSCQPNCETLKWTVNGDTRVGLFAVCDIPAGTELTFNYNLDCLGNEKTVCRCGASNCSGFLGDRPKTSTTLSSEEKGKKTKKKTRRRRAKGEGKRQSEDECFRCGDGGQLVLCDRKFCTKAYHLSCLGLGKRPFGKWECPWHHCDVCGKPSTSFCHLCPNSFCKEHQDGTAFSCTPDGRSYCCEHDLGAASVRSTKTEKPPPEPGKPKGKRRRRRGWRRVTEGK

[6] = blockers of HIV-1 envelope-mediated cell-cell fusion – cherry-pick, dose response (AID 652057); type: functional, cell-based
[7] = blockers of HIV-1 ZM109 envelope-driven cell-cell fusion – HeLa effector, CEM target cells, luciferase, cherry-pick, dose response (AID 652058); type: functional, cell-based;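 note: luciferase signal from HIV-1 Env mediated cell-cell fusion of effector and target cells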
[8] = off-target signal loss in HeLa-CEM21 co-culture – HeLa F-luc CTL cells, cherry-picked, counter-screen for HIV-1 Env fusion inhibitor project, dose response (AID 652040); type: functional, cell-based;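 note: potency for signal decrease marking cytotoxic or nonspecific inhibition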
[9] = HIV-1 AD8 envelope cell-cell fusion blockers – cherry-pick, dose response (AID 652062); type: functional, cell-based;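 note: luciferase signal from cell-cell fusion driven by HIV-1 clade B AD8 Env; potency is for inhibitors of fusion seen as a drop in luminescence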
[10] = molecular target: Cytochrome P450 2C9 (Homo sapiens, UniProt P11712)
Cytochrome P450 2C9, sequence (P11712 whole entry): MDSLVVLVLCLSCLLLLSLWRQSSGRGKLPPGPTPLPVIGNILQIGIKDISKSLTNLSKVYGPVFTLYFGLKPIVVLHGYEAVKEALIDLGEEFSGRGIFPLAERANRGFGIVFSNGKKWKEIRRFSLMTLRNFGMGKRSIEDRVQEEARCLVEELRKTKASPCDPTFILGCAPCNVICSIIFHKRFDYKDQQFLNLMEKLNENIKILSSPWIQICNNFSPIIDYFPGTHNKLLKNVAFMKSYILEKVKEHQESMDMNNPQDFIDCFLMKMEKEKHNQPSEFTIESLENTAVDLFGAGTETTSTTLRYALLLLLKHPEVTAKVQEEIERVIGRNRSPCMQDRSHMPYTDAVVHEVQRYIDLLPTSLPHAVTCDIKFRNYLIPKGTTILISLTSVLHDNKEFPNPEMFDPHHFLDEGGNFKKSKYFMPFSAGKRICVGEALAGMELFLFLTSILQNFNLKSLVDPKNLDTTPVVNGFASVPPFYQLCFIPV

[11] = P. falciparum Dd2 growth inhibitors, dose response, SYBR Green, cherry-picked samples (AID 1159567); type: functional, cell-based
[12] = molecular target: T2, Rac GTPase-activating protein 1 (Homo sapiens, UniProt Q9H0H5); assay: blockers of MgcRacGAP-driven Rac1 GTP hydrolysis – biochemical, ADP Hunter fluorescence, primary and confirmatory, confirmation (AID 624330); type: functional
T2 sequence (Q9H0H5 whole entry): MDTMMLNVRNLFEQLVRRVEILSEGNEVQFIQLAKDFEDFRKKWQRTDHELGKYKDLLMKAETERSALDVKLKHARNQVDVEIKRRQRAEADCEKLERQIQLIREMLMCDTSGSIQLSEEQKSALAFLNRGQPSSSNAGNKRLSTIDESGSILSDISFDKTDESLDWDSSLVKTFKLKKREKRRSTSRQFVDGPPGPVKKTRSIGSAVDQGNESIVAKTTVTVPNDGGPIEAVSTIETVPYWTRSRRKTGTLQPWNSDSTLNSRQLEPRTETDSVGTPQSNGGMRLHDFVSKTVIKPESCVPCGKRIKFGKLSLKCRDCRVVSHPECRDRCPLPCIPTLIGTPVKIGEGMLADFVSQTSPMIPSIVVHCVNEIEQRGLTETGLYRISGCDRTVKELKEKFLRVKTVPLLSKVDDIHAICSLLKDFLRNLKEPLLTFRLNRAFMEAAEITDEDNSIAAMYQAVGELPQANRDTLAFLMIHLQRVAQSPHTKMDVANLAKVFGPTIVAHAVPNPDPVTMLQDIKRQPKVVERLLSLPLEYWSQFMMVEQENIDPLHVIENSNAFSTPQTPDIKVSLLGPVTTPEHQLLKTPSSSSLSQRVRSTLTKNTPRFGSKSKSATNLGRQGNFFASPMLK

[13] = HEK-293T viability loss after treatment – luminescence, T-cell screen hits, cytotoxicity control for TCR NF-kB inhibitor project, dose response (AID 489026); type: functional, cell-based;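 note: cells exposed to compound about 14 hours before the viability readout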
[14] = Trypanosoma cruzi growth suppression in host cells – NIH3T3 host cells, beta-gal luminescence, confirmation (AID 2044); type: functional, cell-based;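 note: intracellular parasites grown in NIH/3T3 mouse fibroblasts as host cells; luminescent beta-galactosidase reporter signal from transgenic T. cruzi replicating inside host cells; inhibitors lower the luminescence signal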
[15] = NIH3T3 cell viability loss – ATP luminescence, mouse fibroblasts, counter-screen, dose response (AID 2010); type: functional, cell-based;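 note: cells exposed to compound for about 90 hours before reading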
[16] = molecular target: T3, Microphthalmia-associated transcription factor (Homo sapiens, UniProt O75030); assay: reducers of TRPM1 reporter luminescence, concentration series – cell-based, SK-MEL-5, cherry-picked, set 3, MITF inhibitor project, dose response (AID 493073); type: functional;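 note: SK-MEL-5 melanoma cells with luciferase driven by the MITF target TRPM1 promoter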
T3 sequence (O75030 whole entry): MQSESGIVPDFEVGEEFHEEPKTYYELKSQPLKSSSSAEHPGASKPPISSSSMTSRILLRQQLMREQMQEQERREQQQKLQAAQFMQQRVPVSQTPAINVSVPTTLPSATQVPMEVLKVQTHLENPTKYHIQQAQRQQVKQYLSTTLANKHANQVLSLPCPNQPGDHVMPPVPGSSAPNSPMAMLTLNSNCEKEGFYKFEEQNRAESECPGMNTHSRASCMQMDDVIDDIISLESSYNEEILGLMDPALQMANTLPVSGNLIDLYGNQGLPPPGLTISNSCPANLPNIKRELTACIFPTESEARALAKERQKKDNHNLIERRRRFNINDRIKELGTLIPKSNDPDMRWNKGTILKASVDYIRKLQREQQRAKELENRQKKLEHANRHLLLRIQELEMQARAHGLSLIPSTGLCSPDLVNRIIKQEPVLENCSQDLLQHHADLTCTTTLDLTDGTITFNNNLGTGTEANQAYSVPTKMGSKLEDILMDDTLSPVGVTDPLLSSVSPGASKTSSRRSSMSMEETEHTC

[17] = reduction of Shn3 3'UTR-driven luciferase in osteoblasts – cell-based, Clone20 osteoblasts, firefly luciferase, cherry-picked, dose response (AID 624132); type: functional;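 note: firefly luciferase luminescence from reporter carrying the Shn3 3'UTR in osteoblasts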
[18] = loss of viability in HepG2 cells – cell-based, CellTiter-Glo, cherry-picked, cytotoxicity control for Shn3 inhibitor project, dose response (AID 624134); type: functional
[19] = non-specific 3'UTR reporter inhibition in Clone20-Shn3RL – cell-based, Renilla luciferase, cherry-picked, counter-screen for Shn3 inhibitor project, dose response (AID 624133); type: functional
[20] = Luminescence Cell-Based Dose Retest to Confirm Inhibitors of Cancer Stem Cells. [Related pubchem assays (depositor defined):AID2717, AID2721]; type: functional; details: Homo sapiens
[21] = Vero E6 cell cytotoxicity, dose response, cytotoxicity control for non-replicating M. tuberculosis project, secondary assay (AID 492998); type: functional, VeroE6; details: Vero C1008
[22] = cells; type: functional

CC(C)N1C(=O)CC(Nc2ccc(N3CCOCC3)cc2)C1=O (stereo not given)
EC50 [1]: > 120 µM (not active)
EC50 [2]: 29.1 µM (active)
EC50 [3]: > 120 µM (not active)

C=CCNC(=O)c1ccc(OC2CCN(S(=O)(=O)N(C)C)CC2)cc1
EC50 [1]: 16.9 µM (active)
EC50 [2]: 15.2 µM (active)
EC50 [3]: 25.6 µM (active)

Cc1cccc2cc(/C=C3\N=C(c4ccccc4)OC3=O)c(N(C)C)nc12
IC50 [4]: > 100 µM (not active)

CN(C)c1cccc2c(S(=O)(=O)Nc3ccccn3)cccc12
AC50 [5]: 15.3 µM (active)

Cn1c(O)nc2cc3ccccc3cc21
AC50 [6]: 1.46 µM (active)
AC50 [7]: 53.3 µM (active)
AC50 [8]: 0.717 µM (active)
AC50 [9]: 4.99 µM (active)

Cn1c(-c2ccc3c(c2)OCO3)cnc1NCc1ccccc1
EC50 [1]: 14.6 µM (active)
EC50 [2]: 6.69 µM (active)
EC50 [3]: 39.9 µM (active)
AC50 [10]: 31.6 µM (inconclusive)

C[C@H]1CN([C@@H](C)CO)C(=O)Cc2cc(NC(=O)Nc3ccccc3)ccc2O[C@H]1CN(C)S(=O)(=O)c1ccccc1
AC50 [6]: 5.16 µM (active)
AC50 [7]: 4.49 µM (active)
AC50 [9]: 5.2 µM (active)

N#Cc1ccc(-c2ccc3c(c2)[C@@H]2[C@@H](CCN2C(=O)C2CCC2)[C@@H](CO)N3)cc1
AC50 [11]: 9.93 µM (active)

O=[N+]([O-])c1ccccc1Nc1ccc(O)cc1
IC50 [12]: 22.6 µM (active)
AC50 [5]: > 20 µM (inactive)

O=C(NCc1cccs1)C1CCN(c2ccc(S(=O)(=O)N3CCOCC3)cc2Cl)CC1
IC50 [13]: > 80 µM (inactive)

COc1cc(C)c(Cl)cc1S(=O)(=O)Nc1cccnc1
IC50 [4]: > 10 µM (inconclusive)

CCN1C(=O)[C@H]2[C@H]3CN=C(SCc4ccc(Cl)cc4)N3[C@@](CC)(C(=O)OC)[C@H]2C1=O
AC50 [6]: 3.34 µM (active)
AC50 [7]: 3.37 µM (active)
AC50 [8]: 3.59 µM (active)
AC50 [9]: 5.43 µM (active)

CC[C@@]1(C(=O)OC)N[C@H](CN(C)C(=O)Nc2ccc(C(F)(F)F)cc2)[C@@H]2C(=O)N(Cc3ccccc3)C(=O)[C@@H]21
AC50 [6]: 0.336 µM (active)
AC50 [7]: 0.604 µM (active)
AC50 [8]: 0.74 µM (active)
AC50 [9]: 1.21 µM (active)

O=C(Nc1ccc(N2CCN(C(=O)c3ccc(Cl)cc3)CC2)cc1)c1ccc([N+](=O)[O-])o1
EC50 [14]: 1.81 µM (active)
EC50 [15]: 32.8 µM (active)
AC50 [16]: 7.32 µM (active)

O=C(CSc1ccc(-c2ccccc2)nn1)Nc1ccc2c(c1)OCCO2
EC50 [1]: 7.15 µM (active)
EC50 [2]: 13.1 µM (active)
EC50 [3]: > 120 µM (not active)

CC(C)(C)N1C(=O)[C@H]2[C@@H](c3ccc(Br)cc3)N3C(=O)N(c4cccc(Cl)c4)C(=O)[C@@]3(C)[C@H]2C1=O
AC50 [6]: 0.464 µM (active)
AC50 [7]: 0.542 µM (active)
AC50 [8]: 0.843 µM (active)
AC50 [9]: 3.2 µM (active)

CCOC(=O)N1CCC(NC(=O)C2CCCN(Cc3nc(-c4cccc(C)c4)oc3C)C2)CC1 (stereo not given)
AC50 [16]: 34.9 µM (active)
AC50 [17]: 3.06 µM (active)
AC50 [18]: 55.6 µM (active)
AC50 [19]: 7.52 µM (active)

COc1cc(/C=C2/SC(=S)NC2=O)cc(Cl)c1OCc1ccc(Cl)cc1Cl
IC50 [4]: > 100 µM (not active)

Cc1cc2c(cc1C)C(c1ccccc1OC(C)C)CC(=O)N2 (stereo not given)
AC50 [20]: 0.796 µM (active)
IC50 [13]: 62.2 µM (inactive)

Cc1ccc(S(=O)(=O)N(C)C[C@H]2Oc3ccc(NC(=O)c4ccncc4)cc3C(=O)N([C@@H](C)CO)C[C@@H]2C)cc1
AC50 [11]: 8.41 µM (active)

COc1cccc(CC(CC(=O)O)C(=O)O)c1 (stereo not given)
IC50 [4]: > 100 µM (not active)

CC(=O)Nc1nnc(SCc2cccc3ccccc23)[nH]1
IC50 [4]: > 100 µM (not active)

Cc1cc(C)n2[nH]c(=O)c(N=Nc3cccc(Cl)c3)c2n1
CC50 [21]: > 20 µM (active)
IC50 [22]: 17.7 µM (active)

C[C+](C)[N-]Oc1cc(NC(=O)CCl)cc([N+](=O)[O-])c1
AC50 [16]: 6.18 µM (active)

COc1ccc(C)c(Cn2c(-c3nonc3N)nc3ccccc32)c1
IC50 [13]: > 80 µM (inactive)

CCN(CC)CCNC(=O)c1c(C)[nH]c(/C=C2\C(=O)Nc3ccc(F)cc32)c1C
AC50 [5]: > 20 µM (inactive)

Cc1ccc(N2C(=O)c3[nH]nc(C)c3C2c2ccco2)cc1 (stereo not given)
EC50 [1]: > 120 µM (not active)
EC50 [2]: 48.5 µM (active)
EC50 [3]: 17.9 µM (inconclusive)
